Results taken from patent US20230075965A1, “USES OF BIOMARKERS FOR IMPROVING IMMUNOTHERAPY” (Dana-Farber Cancer Institute, Inc., priority 2020, published 2023).

Legend:
[1] = test system: HLA-A/B/C on HT29 and SW620 cells; test: Flow cytometry of surface HLA-A/B/C after IFN-gamma, STAT1 KO vs control KO; format: cell-based, human; settings: HT29 and SW620, 5 ng/ml IFN-gamma overnight
Method: (§1) HT29 and SW620 cells were transduced with sgRNAs against STAT1 (or control OR genes) and treated overnight with vs. without 5 ng/ml IFN-gamma prior to staining. […] FIG. 6D CTG cytotoxicity assays (see Methods) for HT29 cells with HLA-E KO compared with control KO (data are represented as CTG cytotoxicity assays for HT29, SW620 cells with sgRNA against STAT1 (left) or HLA-E (right) or control KO (using OR10A2) at E:T 1:1, using 3-4 donors per line, n=7 different co-cultures, each co-culture was conducted in 6 replicates. (STAT1 p=7.24E-6, HLA-E p=2.27E-7, Mann-Whitney two sided test n=42). Data are represented as mean±SD). […] Pools of cells of the PRISM DNA-barcoded cell lines were labeled with a fluorescent conjugated antibody, sorted by flow cytometer into four bins based on its fluorescence levels and then sequenced to quantify the read counts of each barcode (and thus presence of cells from each cell line) in each bin. Surface protein expression scores were calculated per line from the read counts in each bin (see Method). […] Upper right: Normalized read counts of each bin sorted by SPIN. In view of the dynamic range of the antibody staining, the four bins were combined into two; reads from the top 2 bins with highest expression are labeled ‘High’ and reads from the 2 bins with lower staining are labeled ‘Low’. Middle right: calculated protein scores. […]

[2] = test system: HLA-E on HT29 and SW620 cells; test: Flow cytometry of surface HLA-E after IFN-gamma, STAT1 KO vs control KO; format: cell-based, human; settings: HT29 and SW620, 5 ng/ml IFN-gamma overnight
Method: as §1

## IFN-gamma: interferon-gamma used to stimulate HLA-E and MHC class I expression on tumor cells
[1]
  HLA-A/B/C surface expression upon IFN-gamma stimulation: further increased with IFN-gamma stimulation in the control KO, but not in STAT1 KO cells
[2]
  HLA-E surface expression upon IFN-gamma stimulation: upregulated in control KO, but not with STAT1 KO
